The target of assay [1] is T1, AChE (Homo sapiens, UniProt P22303). As to the kind of experiment: AChE inhibition, modified Ellman approach. Format: biochemical. Conditions: for inhibition at 1000 µM: 10^-3 M; for inhibition at 100 µM: 10^-4 M; for inhibition at 10 µM: 10^-5 M; for inhibition at 1 µM: 10^-6 M; for inhibition at 0.1 µM: 10^-7 M; for inhibition at 0.01 µM: 10^-8 M; for inhibition at 0.001 µM: 10^-9 M. On the technique in general: Ellman's reagent forms a yellow product with free thiols.
T1 sequence (P22303 32-614): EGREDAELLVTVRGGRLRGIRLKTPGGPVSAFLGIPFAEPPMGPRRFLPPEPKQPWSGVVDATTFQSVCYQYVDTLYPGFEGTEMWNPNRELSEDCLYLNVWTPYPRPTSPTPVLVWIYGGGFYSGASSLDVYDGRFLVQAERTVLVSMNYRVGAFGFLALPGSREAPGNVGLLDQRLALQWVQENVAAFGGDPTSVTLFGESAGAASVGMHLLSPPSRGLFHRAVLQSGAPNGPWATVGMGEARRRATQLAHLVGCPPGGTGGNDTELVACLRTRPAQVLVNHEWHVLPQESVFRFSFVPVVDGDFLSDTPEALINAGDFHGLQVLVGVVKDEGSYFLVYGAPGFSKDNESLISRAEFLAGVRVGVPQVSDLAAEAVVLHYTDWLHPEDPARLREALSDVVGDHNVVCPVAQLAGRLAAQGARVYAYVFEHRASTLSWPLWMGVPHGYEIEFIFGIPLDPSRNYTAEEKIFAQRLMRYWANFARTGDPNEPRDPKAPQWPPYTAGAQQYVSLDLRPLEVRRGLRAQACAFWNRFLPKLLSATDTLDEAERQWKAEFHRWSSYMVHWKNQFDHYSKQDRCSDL
Method: (§1) According to the modified Ellman approach outlined in our earlier works − the AChE and BChE inhibitory activities of the obtained compounds were evaluated.

Assay [2] addresses human BChE (Homo sapiens, UniProt P06276). As to the kind of experiment: biochemical. The note with it: read-out: BChE % Inhibition.
Method: as §1
The target of assay [3] is T2, Human β-Secretase (BACE-1) (Homo sapiens, UniProt P56817).
T2 construct: purchased K720-100
T2 sequence (P56817 46-501): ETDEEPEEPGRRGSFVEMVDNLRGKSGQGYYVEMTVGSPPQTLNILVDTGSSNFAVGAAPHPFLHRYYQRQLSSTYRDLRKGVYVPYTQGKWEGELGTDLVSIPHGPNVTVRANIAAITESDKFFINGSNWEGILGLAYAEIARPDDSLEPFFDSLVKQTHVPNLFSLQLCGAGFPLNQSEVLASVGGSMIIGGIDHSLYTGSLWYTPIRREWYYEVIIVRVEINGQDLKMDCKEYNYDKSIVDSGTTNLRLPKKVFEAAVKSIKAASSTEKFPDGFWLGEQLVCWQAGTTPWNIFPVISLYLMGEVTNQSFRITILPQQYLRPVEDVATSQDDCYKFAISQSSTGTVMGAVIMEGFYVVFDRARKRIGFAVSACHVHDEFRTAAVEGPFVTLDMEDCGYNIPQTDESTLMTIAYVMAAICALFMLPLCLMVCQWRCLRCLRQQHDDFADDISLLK
As to the kind of experiment: Human β-Secretase (BACE-1) Inhibitor Screening Assay kit (fluorometric). Format: biochemical.
From the text: The experimental procedure was based on the “Human β-Secretase (BACE-1) Inhibitor Screening Assay” kit (Human β-Secretase (BACE1) Inhibitor Screening Kit (Fluorometric)-Catalog no: K720-100) protocol based on the fluorometric method as performed previously.

Assay [4] has as its target T1, AChE. As to the kind of experiment: Kinetic studies of AChE enzyme inhibition (Lineweaver–Burk, secondary plot). The format is biochemical. The note with it: Lineweaver–Burk plots. How it is done: Enzyme kinetics studies were conducted to determine the mechanism of inhibition of AChE using a procedure similar to that of the inhibition assay for cholinesterase enzymes. […] Linear Lineweaver–Burk graphs were used to estimate the type of inhibition of this compound. The velocity curves of the substrates were recorded in the absence and presence of compound 4m. […] In each case, the initial velocity measurements were obtained at different substrate (ATC) concentrations ranging from 600 to 18.75 μM.
For this purpose, this compound was prepared at different concentrations (IC50, 2xIC50 and IC50/2). Moreover, a substrate (ATC) was used at various concentrations (600, 300, 150, 75, 37.5, and 18.75 μM). The enzyme kinetics assay was carried out as in our previous. − Lineweaver–Burk plots were formed using Microsoft Office Excel 2013. The K i values of the compound were easily calculated from the second plot with a common intercept on the x-axis (corresponding to –K i).

This note sets out measurements from paper PMC12332554, “Novel Benzofuran-3-yl-methyl and Aliphatic Azacyclics: Design, Synthesis, and In Vitro and In Silico anti-Alzheimer Disease Activity Studies” (ACS Omega, 2025).

One may read the inhibition as the change of the read-out against control, counted positive when it falls. Broadly, the IC50 is the concentration needed to halve the response being measured. Lower therefore signals inhibition by little substance.

Molecules are shown by their SMILES. Bounds are passed on as bounds.

human BChE, sequence (P06276 29-602): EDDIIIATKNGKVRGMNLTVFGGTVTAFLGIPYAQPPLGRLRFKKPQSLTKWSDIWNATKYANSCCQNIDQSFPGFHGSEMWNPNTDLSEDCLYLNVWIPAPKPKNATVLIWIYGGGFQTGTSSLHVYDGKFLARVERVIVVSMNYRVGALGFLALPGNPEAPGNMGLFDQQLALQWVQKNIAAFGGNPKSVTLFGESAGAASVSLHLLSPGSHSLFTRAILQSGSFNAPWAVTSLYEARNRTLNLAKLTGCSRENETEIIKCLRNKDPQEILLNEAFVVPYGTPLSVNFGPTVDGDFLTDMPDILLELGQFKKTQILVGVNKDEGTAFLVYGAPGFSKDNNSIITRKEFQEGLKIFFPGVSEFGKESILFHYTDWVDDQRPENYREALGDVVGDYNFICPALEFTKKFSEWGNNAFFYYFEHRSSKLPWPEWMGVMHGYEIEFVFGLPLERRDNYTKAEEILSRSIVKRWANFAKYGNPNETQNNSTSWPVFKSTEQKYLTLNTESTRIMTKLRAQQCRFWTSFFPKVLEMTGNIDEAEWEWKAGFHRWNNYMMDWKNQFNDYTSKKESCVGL

In assay [1], `CC1CCCCN1C(=S)SCc1c(C(=O)c2ccccc2)oc2ccccc12` (stereo not drawn) [4b, (2-Benzoylbenzofuran-3-yl)methyl 2-Methylpiperidine-1-dithiocarbamate] showed an inhibition at 1000 µM of 58.4 ± 1.9% and an inhibition at 100 µM of 43.4 ± 1.62%. Also, in assay [2], the inhibition at 100 µM is 27.3 ± 0.79% and the inhibition at 1000 µM is 33.9 ± 0.9%.

For the compound `CC1CCCN(C(=S)SCc2c(C(=O)c3ccccc3)oc3ccccc23)C1` (stereo not drawn) [4c, (2-Benzoylbenzofuran-3-yl)methyl 3-Methylpiperidine-1-dithiocarbamate], the inhibition at 1000 µM amounted to 71.7 ± 1.1% in assay [1] and 30.4 ± 0.9% in assay [2]. For the same compound, the figures for the inhibition at 100 µM in assay [1] and in assay [2] were 43 ± 0.89% and 22.1 ± 0.84%, respectively.

Regarding `O=C(c1ccccc1)c1oc2ccccc2c1CSC(=S)N1CCOCC1` [4f, (2-Benzoylbenzofuran-3-yl)methyl Morpholine-4-dithiocarbamate], in assay [1], the inhibition at 1000 µM was found to be 70.8 ± 1.12% and testing at 100 µM gave an inhibition of 41.3 ± 0.9%. In assay [2], the inhibition at 100 µM is 20.7 ± 0.86% and the inhibition at 1000 µM came to 28.4 ± 0.92%.

For `CN(C)CCCN1CCN(C(=S)SCc2c(C(=O)c3ccccc3)oc3ccccc23)CC1` [4g, (2-Benzoylbenzofuran-3-yl)methyl 4-(3-(Dimethylamino)propyl)piperazine-1-dithiocarbamate], in assay [1], at 1000 µM the inhibition was 69 ± 0.97% and testing at 100 µM gave an inhibition of 39.1 ± 0.87%. In addition, in assay [2], the inhibition at 100 µM amounted to 21.7 ± 0.93% and the inhibition at 1000 µM came to 29.3 ± 0.89%.

On to `O=C(c1ccccc1)c1oc2ccccc2c1CSC(=S)N1CCCCC1` [4a, (2-Benzoylbenzofuran-3-yl)methylpiperidine-1-dithiocarbamate], for which the inhibition at 1000 µM in assay [1] amounted to 65.2 ± 1.02%; in assay [2], 31.7 ± 0.89%. The inhibition at 100 µM came to 40.7 ± 0.98% in assay [1] and 25.8 ± 0.92% in assay [2].

In assay [1], `O=C(c1ccccc1)c1oc2ccccc2c1CSC(=S)N1CCN(c2ccc(Cl)cc2)CC1` [4n, (2-Benzoylbenzofuran-3-yl)methyl 4-(4-Chlorophenyl)piperazine-1-dithiocarbamate] came in with an inhibition at 1000 µM of 76.7 ± 1.26% and an inhibition at 100 µM of 46.8 ± 0.86%. Besides, in assay [2], the inhibition at 100 µM worked out at 20.1 ± 0.78% and the inhibition at 1000 µM is 29.6 ± 0.86%.

In assay [1], `O=C(c1ccccc1)c1oc2ccccc2c1CSC(=S)N1CCN(c2ncccn2)CC1` [4i, (2-Benzoylbenzofuran-3-yl)methyl 4-(Pyrimidine-2-yl)piperazine-1-dithiocarbamate] returned an inhibition at 1000 µM of 72.8 ± 1% and an inhibition at 100 µM of 43.6 ± 0.87%. Also, in assay [2], the inhibition at 100 µM came out at 20.8 ± 0.88% and the inhibition at 1000 µM was found to be 28.6 ± 0.82%.

Turning to `O=C(c1ccccc1)c1oc2ccccc2c1CSC(=S)N1CCN(c2ccc(F)cc2)CC1` [4o, (2-Benzoylbenzofuran-3-yl)methyl 4-(4-Fluorophenyl)piperazine-1-dithiocarbamate], in assay [1], the IC50 turned out to be 41 ± 2 nM, the inhibition at 1000 µM stood at 91.2 ± 1.57%, 100 µM produced 83.6 ± 1.47% inhibition and the inhibition at 10 µM turned out to be 75 ± 1.67%. In addition, in assay [1], the inhibition at 1 µM is 65.8 ± 1.1%, the inhibition at 0.1 µM turned out to be 58.3 ± 1%, the inhibition at 0.01 µM turned out to be 48 ± 0.95% and the inhibition at 0.001 µM was 20.8 ± 0.74%. For the same compound, in assay [2], the inhibition at 100 µM was found to be 30.3 ± 0.82% and the inhibition at 1000 µM stood at 37.5 ± 0.75%. In assay [3], the IC50 is more than 10000 nM and the “β-secretase (BACE-1) IC50” value is reported as “no significant inhibition”.

On to `O=C(c1ccccc1)c1oc2ccccc2c1CSC(=S)N1CCN(C(=O)c2ccco2)CC1` [4h, (2-Benzoylbenzofuran-3-yl)methyl 4-(Furan-2-carbonyl)piperazine-1-dithiocarbamate], for which, in assay [1], the IC50 was 54 ± 2 nM, the inhibition at 1000 µM is 90.7 ± 1.24%, the inhibition at 100 µM came to 84.2 ± 1.33% and the inhibition at 10 µM was 80.3 ± 1.1%. In assay [1], 1 µM produced 75.9 ± 1.32% inhibition, testing at 0.1 µM gave an inhibition of 60.3 ± 0.97%, 0.01 µM produced 45.7 ± 0.87% inhibition and testing at 0.001 µM gave an inhibition of 23 ± 0.78%. Moreover, in assay [2], the inhibition at 100 µM turned out to be 28.3 ± 0.82% and the inhibition at 1000 µM is 36.8 ± 0.76%. For the same compound, half-maximal inhibition in assay [3] (IC50) required 155 ± 7 nM.

With `CC1CCN(C(=S)SCc2c(C(=O)c3ccccc3)oc3ccccc23)CC1` [4d, (2-Benzoylbenzofuran-3-yl)methyl 4-Methylpiperidine-1-dithiocarbamate], the inhibition at 1000 µM in assay [1] turned out to be 63.8 ± 1.59%; in assay [2], 28.3 ± 0.81%. In addition, the inhibition at 100 µM in assay [1] was determined as 40.7 ± 0.97%; in assay [2], 24.4 ± 0.93%.

In assay [1], `O=C(c1ccccc1)c1oc2ccccc2c1CSC(=S)N1CCN(c2ccc([N+](=O)[O-])cc2)CC1` [4k, (2-Benzoylbenzofuran-3-yl)methyl 4-(4-Nitrophenyl)piperazine-1-dithiocarbamate] had an inhibition at 1000 µM of 69 ± 1% and an inhibition at 100 µM of 41.6 ± 0.95%. Further, in assay [2], the inhibition at 100 µM was found to be 23.6 ± 0.83% and the inhibition at 1000 µM was found to be 30.4 ± 0.93%.

For the compound `COc1ccc(N2CCN(C(=S)SCc3c(C(=O)c4ccccc4)oc4ccccc34)CC2)cc1` [4l, (2-Benzoylbenzofuran-3-yl)methyl 4-(4-Methoxyphenyl)piperazine-1-dithiocarbamate], in assay [1], the inhibition at 1000 µM stood at 72.3 ± 1.1% and testing at 100 µM gave an inhibition of 43.9 ± 0.98%. Further, in assay [2], the inhibition at 100 µM turned out to be 21.4 ± 0.87% and the inhibition at 1000 µM was found to be 30.5 ± 0.87%.

With `O=C(c1ccccc1)c1oc2ccccc2c1CSC(=S)N1CCN(c2ccccc2)CC1` [4j, (2-Benzoylbenzofuran-3-yl)methyl 4-Phenylpiperazine-1-dithiocarbamate], in assay [1], the inhibition at 1000 µM worked out at 75.6 ± 1.05% and at 100 µM the inhibition was 41 ± 0.79%. Also, in assay [2], the inhibition at 100 µM came out at 24.9 ± 0.92% and the inhibition at 1000 µM was determined as 31.6 ± 0.73%.

In assay [1], `O=C(c1ccccc1)c1oc2ccccc2c1CSC(=S)N1CCN(CCO)CC1` [4m, (2-Benzoylbenzofuran-3-yl)methyl 4-(2-Hydroxyethyl)piperazine-1-dithiocarbamate] registered an IC50 of 29 ± 1 nM, an inhibition at 1000 µM of 94.3 ± 1.64%, an inhibition at 100 µM of 89.4 ± 1.5% and an inhibition at 10 µM of 80.2 ± 1.48%. In assay [1], this compound came in with an inhibition at 1 µM of 75.4 ± 1.1%, an inhibition at 0.1 µM of 70.4 ± 1.21%, an inhibition at 0.01 µM of 44.7 ± 0.97% and an inhibition at 0.001 µM of 26.6 ± 0.72%. Moreover, in assay [2], the inhibition at 100 µM amounted to 31.1 ± 0.73% and the inhibition at 1000 µM turned out to be 39.1 ± 0.76%. For the same compound, in assay [4], the “type of AChE inhibition” value is “reversible and mixed-type inhibitor”. Also, in assay [3], inhibition was half-maximal at 84 ± 3 nM (IC50).

For `O=C(c1ccccc1)c1oc2ccccc2c1CSC(=S)N1CCC(Cc2ccccc2)CC1` [4e, (2-Benzoylbenzofuran-3-yl)methyl 4-Benzylpiperidine-1-dithiocarbamate], in assay [1], the IC50 amounted to 49 ± 2 nM, at 1000 µM the inhibition was 92.6 ± 1.38%, the inhibition at 100 µM amounted to 88.6 ± 1.4% and the inhibition at 10 µM was determined as 80.2 ± 1.11%. In assay [1], the inhibition at 1 µM turned out to be 74.3 ± 1.5%, the inhibition at 0.1 µM was determined as 61.6 ± 0.92%, the inhibition at 0.01 µM is 45.4 ± 0.72% and at 0.001 µM the inhibition was 21.5 ± 0.86%. For the same compound, in assay [2], the inhibition at 100 µM worked out at 29 ± 0.73% and the inhibition at 1000 µM worked out at 35.6 ± 0.88%. In assay [3], this compound had an IC50 of 134 ± 6 nM.
